In brackets after ≈: the same amount, converted by molar mass.

Test systems include Escherichia coli 780; Escherichia coli 850; Acinetobacter baumannii; Listeria grayi DSM 20601; Candida glabrata 090902; Pseudomonas aeruginosa 1; Pseudomonas aeruginosa 5.
Experiment in all cases: ≥ marks a high value that may be exact or a test limit, other limits are often not marked, values filed in µg/mL are converted to µM
For test [1], the system named is Staphylococcus aureus ATCC 25923.
In test [2] the test system is Enterococcus faecalis ATCC 29212.
Test [3] concerns Staphylococcus aureus 725.
Test [4] relates to Klebsiella pneumoniae ATCC 700603.
In test [5] the test system is Acinetobacter baumannii ATCC 19606.
For test [6], the system named is Escherichia coli ATCC 25922.
The subject of test [7] is Pseudomonas aeruginosa ATCC 27853.
Test [8] has as its system Bacillus subtilis ATCC 23857.
In test [9] the test system is Pseudomonas aeruginosa 2760.
For test [10], the system named is Staphylococcus aureus 936.
Test [11] has as its system Staphylococcus epidermidis DSM 3269.
In test [12] the test system is Psychrobacter faecalis X29.
Test [13] concerns Klebsiella pneumoniae 08040724.
For test [14], the system named is Enterobacter cloacae CGMCC 1.57.
The test system of test [15] is Nocardia asteroides 201118.
Test [16] deals with Enterococcus faecalis 981.
In test [17] the test system is Enterococcus faecium 091299.
For test [18], the system named is Candida albicans ATCC 10231.
For test [19], the system named is Staphylococcus aureus ATCC 29313.
The test system of test [20] is Salmonella enterica subsp. enterica serovar Typhimurium ATCC 14028.
The subject of test [21] is Acinetobacter baumannii AB3.
The test system of test [22] is Acinetobacter baumannii AB1.
In test [23] the test system is Acinetobacter baumannii AB2.
In test [24] the test system is Staphylococcus aureus 68 HER 1049.
Test [25] deals with Escherichia coli K12 MG1655.

Turning to `CC[C@H](C)[C@H](NC(=O)[C@H](CCCCN)NC(=O)[C@H](CCCCN)NC(=O)[C@H](C)NC(=O)[C@H](CC(C)C)NC(=O)[C@H](C)NC(=O)[C@H](C)NC(=O)[C@H](CC(C)C)NC(=O)[C@@H]1CCCN1C(=O)[C@H](CCCCN)NC(=O)[C@H](CC(C)C)NC(=O)[C@H](CC(N)=O)NC(=O)[C@@H](NC(=O)[C@H](CCCCN)NC(=O)CNC(=O)[C@H](CC(C)C)NC(=O)[C@H](CC(C)C)NC(=O)[C@H](Cc1ccc(O)cc1)NC(=O)CNC(=O)[C@H](C)N)[C@@H](C)CC)C(=O)N[C@@H](CC(C)C)C(N)=O` [AGYLLGKINLKPLAALAKKIL], the MIC in [1] was 58 µM (≈ 128 µg/mL); against Escherichia coli 780, 14.5 µM (≈ 32 µg/mL); in [2], over 58 µM; in test [3], 29 µM (≈ 64 µg/mL); in test [4], 29 µM (≈ 64 µg/mL); in test [5], 3.62 µM (≈ 8 µg/mL). For the same molecule, the minimal inhibitory concentration (MIC) in test [6] was 7.24 µM (≈ 16 µg/mL); in [7] it was 58 µM (≈ 128 µg/mL); in [8], 3.62 µM (≈ 8 µg/mL); in test [9] it was 29 µM (≈ 64 µg/mL); against Escherichia coli 850 it was 7.24 µM (≈ 16 µg/mL); in test [10], at least 58 µM. Further, the MIC against Acinetobacter baumannii worked out at 3.62 µM (≈ 8 µg/mL).
For `CC[C@H](C)[C@H](NC(=O)CNC(=O)[C@H](CO)NC(=O)[C@@H](N)CS)C(=O)N[C@H](C(=O)N[C@@H](CCCCN)C(=O)N[C@@H](CCC(N)=O)C(=O)N[C@H](C(=O)N[C@@H](CS)C(=O)N[C@H](C(=O)N[C@@H](CS)C(=O)N[C@@H](Cc1ccc(O)cc1)C(=O)N[C@@H](CCCN=C(N)N)C(=O)N[C@@H](CCCCN)C(=O)O)[C@@H](C)O)[C@@H](C)O)[C@@H](C)CC` [CSGIIKQTCTCYRK], the MIC (in test [11]; with Listeria grayi DSM 20601) was 30 µM (≈ 48.1 µg/mL) each time.
For the molecule `CC[C@H](C)[C@H](NC(=O)CNC(=O)[C@@H](NC(=O)[C@H](C)NC(=O)[C@H](C)NC(=O)[C@H](CCCCN)NC(=O)[C@@H](NC(=O)[C@H](CC(C)C)NC(=O)CNC(=O)[C@@H]1CCCN1C(=O)[C@H](CC(C)C)NC(=O)[C@@H](N)Cc1ccccc1)[C@@H](C)CC)C(C)C)C(=O)NCC(=O)N[C@@H](CO)C(=O)N[C@H](C(=O)N[C@H](C(=O)N[C@@H](Cc1ccccc1)C(=O)N[C@H]1CSSC[C@@H](C(=O)O)NC(=O)[C@H](CCCCN)NC(=O)[C@H](CCCN=C(N)N)NC(=O)[C@H](CO)NC(=O)[C@H]([C@@H](C)CC)NC(=O)[C@H](CCCCN)NC1=O)[C@@H](C)CC)[C@@H](C)O` [FLPGLIKAAVGIGSTIFCKISRKC], the minimum inhibitory concentration (MIC) in test [1] was 3.1 µM (≈ 7.82 µg/mL); against Candida glabrata 090902, 3.1 µM (≈ 7.82 µg/mL); in test [12], 25 µM (≈ 63 µg/mL); in test [13], at least 100 µM; in test [14], at least 100 µM; in [6] it was 100 µM (≈ 252 µg/mL). In addition, the MIC in test [15] is 3.1 µM (≈ 7.82 µg/mL); in [16] it was 3.1 µM (≈ 7.82 µg/mL); in test [17], at least 100 µM; in test [18], 50 µM (≈ 126 µg/mL).
For `CC[C@H](C)[C@H](NC(=O)[C@H](CCCCN)NC(=O)CNC(=O)[C@H](CCSC)NC(=O)[C@H](C)NC(=O)[C@H](Cc1cnc[nH]1)NC(=O)[C@H](C)NC(=O)[C@@H](NC(=O)[C@H](CC(C)C)NC(=O)[C@H](CCC(N)=O)NC(=O)[C@H](CCCCN)NC(=O)CNC(=O)[C@H](C)NC(=O)[C@H](CC(=O)O)NC(=O)[C@H](CCCCN)NC(=O)[C@@H](NC(=O)[C@@H](NC(=O)[C@H](CC(=O)O)NC(=O)[C@H](Cc1ccccc1)NC(=O)[C@@H](NC(=O)CN)C(C)C)[C@@H](C)CC)[C@@H](C)CC)C(C)C)C(=O)N[C@@H](C)C(=O)N[C@@H](CCC(=O)O)C(=O)N[C@@H](CCCCN)C(=O)N[C@H](C(N)=O)C(C)C` [GVFDIIKDAGKQLVAHAMGKIAEKV], the MIC is at least 303 µM in test [19], over 303 µM in test [4], over 303 µM in [20] and 303 µM (≈ 800 µg/mL) in test [6].
`CC[C@H](C)[C@H](NC(=O)[C@H](CCCCN)NC(=O)[C@H](CCCCN)NC(=O)[C@H](Cc1ccc(O)cc1)NC(=O)[C@H](CCC(=O)O)NC(=O)[C@H](CCCN=C(N)N)NC(=O)[C@H](C)NC(=O)[C@@H](N)CC(C)C)C(=O)N[C@H](C(=O)N[C@@H](CCC(=O)O)C(=O)N[C@@H](CCCCN)C(=O)N[C@@H](CC(C)C)C(=O)N[C@@H](CCCCN)C(=O)N[C@@H](CCCN=C(N)N)C(=O)N[C@@H](Cc1c[nH]c2ccccc12)C(=O)N[C@@H](CC(C)C)C(=O)N[C@@H](CCCN=C(N)N)C(=O)N[C@@H](CCC(N)=O)C(=O)N[C@H](C(=O)N[C@@H](CC(C)C)C(=O)N[C@@H](CCCN=C(N)N)C(=O)N[C@H](C(=O)N[C@@H](CC(C)C)C(=O)N[C@@H](CCCN=C(N)N)C(=O)O)[C@@H](C)O)C(C)C)C(C)C` [LAREYKKIVEKLKRWLRQVLRTLR]: the MIC in the test with Pseudomonas aeruginosa 1 came to 2.58 µM (≈ 8 µg/mL); in test [21], 5.17 µM (≈ 16 µg/mL); against Pseudomonas aeruginosa 5, 5.17 µM (≈ 16 µg/mL); in test [5], 1.29 µM (≈ 4 µg/mL); in test [22], 2.58 µM (≈ 8 µg/mL); in test [7], 2.58 µM (≈ 8 µg/mL). In test [23], this molecule returned an MIC of 10.3 µM (≈ 32 µg/mL).
Consider `CC(C)C[C@H](NC(=O)[C@H](CCCN=C(N)N)NC(=O)[C@H](CCCCN)NC(=O)[C@H](Cc1c[nH]c2ccccc12)NC(=O)[C@H](Cc1c[nH]c2ccccc12)NC(=O)[C@H](CCCCN)NC(=O)[C@H](Cc1c[nH]c2ccccc12)NC(=O)[C@@H](N)Cc1c[nH]c2ccccc12)C(=O)N[C@@H](CCCN=C(N)N)C(=O)N[C@@H](CCCN=C(N)N)C(=O)N[C@@H](CC(C)C)C(=O)N[C@@H](Cc1ccccc1)C(=O)N[C@@H](CC(C)C)C(=O)N[C@@H](CC(C)C)C(=O)N[C@H](C(=O)O)C(C)C` [WWKWWKRLRRLFLLV], for which the MIC in test [24] and in test [25] was 7.32 µM (≈ 16 µg/mL) throughout.
